According to patent US20100021471A1, “CARBON NANOTUBE-BASED DRUG DELIVERY SYSTEMS AND METHODS OF MAKING SAME” (Brookhaven Science Associates, LLC, priority 2008, published 2010):

System: L1210FR cells
Test: MTT cytotoxicity assay, L1210FR cells
Type: cell-based
Conditions: read-out: IC50 of drug itself
Description: Cell culture. L1210 (ATCC) and L1210FR (a gift from Dr. Gregory Russell-Jones, Access Pharmaceuticals Australia Pty Ltd., Targeted Delivery, Unit 5, 15-17 Gibbes St, Chatswood, NSW, Sydney 2067. Australia) were grown as suspension in a RPMI-1640 cell culture medium (Gibco) in the absence of folic acid (FA) supplemented with 10% (v/v) heat-inactivated fetal bovine serum (FBS) and 1% (v/v) Penicillin and Streptomycin (P/S) at 37° C. in humidified atmosphere with 5% CO2. W1-38 embryonic fibroblast cells (ATCC) were cultured as monolayers on a 100 mm tissue culture dishes in a DMEM cell culture medium (Gibco) supplemented with 10% (v/v) heat-inactivated FBS and 1% (v/v) P/S at 37° C. in humidified atmosphere with 5% CO2. The cells were harvested, collected by centrifugation at 1000 rpm for 6 min, and resuspended in fresh medium at different cell density for biological experiments.
Cytotoxicity assay of conjugate 3. The cells were harvested, collected, and resuspended in 100 μL at a concentration of 2×10^4 cells per well in 96-well plates. For the adhesive cell type, the cells were allowed to reseed to the bottom of the plates overnight and the fresh medium were added to each well upon removal of the old medium. […] At the end of this time, the number of viable cells each wells was determined by a quantitative colorimetric staining assay using a tetrazolium salt (MTT, Sigma Chemical Co.). […]

SB-T-1214-fluorescein
IC50: 87.6 nM
